Measurements as given in patent US8455497B2, “Inhibitors of aspartyl protease” (Vertex Pharmaceuticals Incorporated, priority 1999, dated 2013).
pIC50: −log10 of the molar value. Where two headings read alike, the source gives them in different places.

Assays:
[1] = tested on: EP13 multi protease inhibitor resistant virus; test: Anti-viral activity against resistant virus EP13 in MT4 cells; type: cell-based, HIV-1
Protocol: (§1) Exponentially growing MT4 cells were harvested and centrifuged at 1000 rpm for 10 min in a Jouan centrifuge (model CR 4 12). […] Cell aliquots were infected by the addition of HIV-1 (strain IIIB) diluted to give a viral multiplicity of infection of 100×TCID50. […] Cell infection was allowed to proceed for 1 hr at 37° in a tissue culture incubator with humidified 5% CO2 atmosphere. After the 1 hr incubation the virus/cell suspensions were diluted 6-fold with fresh medium, and 125 μl of the cell suspension was added to each well of the plate containing pre-diluted compound. Plates were then placed in a tissue culture incubator with humidified 5% CO2 for 5 days. At the end of the incubation period, 27 μl of 5% Nonidet-40 was added to each well of the incubation plate. After thorough mixing with a Costar multitip pipetter, 60 μl of the mixture was transferred to filter-bottomed 96-well plates. The plates were analyzed in an automated assay instrument (Screen Machine, Idexx Laboratories). The assay makes use of a propidium iodide dye to estimate the DNA content of each well.
(§2) Anti-Viral Activity Against Resistant Viruses
EP13 and DS45701, two multi protease inhibitor resistant viruses were used to assess potency against mutant viruses. These viruses contain the following mutations relative to the consensus sequence of wild type virus:
EP13: Protease amino acid sequence: M46I, L63P, A71V, V82F/L, I84V; No reverse transcriptase mutations.

[2] = tested on: D545701-14 multi protease inhibitor resistant virus; test: Anti-viral activity against resistant virus D545701-14 in MT4 cells; type: cell-based, HIV-1
Protocol: as §1, §2
EP13 and DS45701, two multi protease inhibitor resistant viruses were used to assess potency against mutant viruses. These viruses contain the following mutations relative to the consensus sequence of wild type virus: […]

HIV-1 (strain IIIB) = test: Antiviral activity assay in MT4 cells (propidium iodide based); type: cell-based; conditions: wild type HIV-1 virus, MT4 cells, read-out: Wildtype virus - IC50
Protocol: Antiviral Activity Assay in MT4 Cells
Aliquots of the test compounds were serially diluted in medium (RPMI 1640, 10% fetal calf serum (FCS), and gentamycin) in 96-well plates (Costar 3598) using a Cetus Pro/Pette. Exponentially growing MT4 cells were harvested and centrifuged at 1000 rpm for 10 min in a Jouan centrifuge (model CR 4 12). Cell pellets were resuspended in fresh medium (RPMI 1640, 20% FCS, 20% IL-2, and gentamycin) to a density of 5×10^5 cells/ml. Cell aliquots were infected by the addition of HIV-1 (strain IIIB) diluted to give a viral multiplicity of infection of 100×TCID50. A similar cell aliquot was diluted with medium to provide a mock-infected control. Cell infection was allowed to proceed for 1 hr at 37° in a tissue culture incubator with humidified 5% CO2 atmosphere. After the 1 hr incubation the virus/cell suspensions were diluted 6-fold with fresh medium, and 125 μl of the cell suspension was added to each well of the plate containing pre-diluted compound. Plates were then placed in a tissue culture incubator with humidified 5% CO2 for 5 days. At the end of the incubation period, 27 μl of 5% Nonidet-40 was added to each well of the incubation plate. After thorough mixing with a Costar multitip pipetter, 60 μl of the mixture was transferred to filter-bottomed 96-well plates. The plates were analyzed in an automated assay instrument (Screen Machine, Idexx Laboratories). The assay makes use of a propidium iodide dye to estimate the DNA content of each well.
The anti-viral potency in MT-4 cells of the compounds set forth in Tables 1 and 2 was determined using the above technique.

[3] = Human immunodeficiency virus 1, MT4, read-out: EP13 mutant IC50, EP13 multi protease inhibitor resistant virus, MT4 cells
[4] = Human immunodeficiency virus 1, IIIB
[5] = Human immunodeficiency virus 1, MT4, read-out: Reference data for protease inhibitors (EP13), EP13 mutant virus
[6] = Human immunodeficiency virus 1, MT4, read-out: Reference data for protease inhibitors (D545701-14), D545701-14 mutant virus
[7] = D545701-14 multi protease inhibitor resistant virus, MT4 cells, read-out: D545701-14 mutant - IC50

| SMILES | pIC50 [2, 7] | pIC50 (HIV-1 (strain IIIB)) | also measured |
| --- | --- | --- | --- |
| CC(C)CN(C[C@@H](O)[C@H](Cc1ccc(OCCCNc2ncccn2)cc1)NC(=O)OC1CO[C@H]2OCC[C@@H]12)S(=O)(=O)c1ccc2c(c1)OCO2 (stereo in doubt) [Compound 271, (3R,3aS,6aR)-hexahydrofuro[2,3-b]furan-3-yl (1S,2R)-3-[(1,3-benzodioxol-5-ylsulfonyl)(isobutyl)amino]-2-hydroxy-1-{4-[3-(2-pyrimidinylamino)propoxy]benzyl}propylcarbamate] |  |  | pIC50 [1, 3]: 8.00 to 9.00; pIC50 ([2]; Human immunodeficiency virus 1, MT4, read-out: D545701-14 mutant - IC50, D545701-14 multi protease inhibitor resistant virus, MT4 cells): 8.00 to 9.00; pIC50 (HIV-1 (strain IIIB); [4]): 8.00 to 9.00 |
| CC(C)CN(C[C@@H](O)[C@H](Cc1ccccc1)NC(=O)O[C@H]1CCOC1)S(=O)(=O)c1ccc(N)cc1 [Amprenavir, reference compound] |  |  | pIC50 [1, 5]: 6.22; pIC50 [2, 6]: < 6.00 |
| CC(C)CN(C[C@@H](O)[C@H](Cc1ccc(OCc2ccoc2)cc1)NC(=O)O[C@H]1CO[C@H]2OCC[C@H]21)S(=O)(=O)c1ccc2c(c1)OCO2 [Compound 210] | 7.00 to 8.00 | 8.00 to 9.00 |  |
| CC(C)CN(C[C@@H](O)[C@H](Cc1ccc(OCCc2ccccn2)cc1)NC(=O)O[C@H]1CO[C@H]2OCC[C@H]21)S(=O)(=O)c1ccc2c(c1)OCO2 [Compound 212] | 7.00 to 8.00 | 8.00 to 9.00 |  |
| CC(C)CN(C[C@@H](O)[C@H](Cc1ccc(OCCCNC(=O)c2ccccc2)cc1)NC(=O)O[C@H]1CO[C@H]2OCC[C@H]21)S(=O)(=O)c1ccc2c(c1)OCO2 [Compound 233] | 7.00 to 8.00 | 8.00 to 9.00 |  |
| CC(C)CN(C[C@@H](O)[C@H](Cc1ccc(OS(=O)(=O)c2ccc([N+](=O)[O-])cc2)cc1)NC(=O)O[C@@H]1CO[C@H]2OCC[C@H]21)S(=O)(=O)c1ccc([N+](=O)[O-])cc1 [Compound 297, 4-((2S,3R)-2-({[(3S,3aS,6aR)-hexahydrofuro[2,3-b]furan-3-yloxy]carbonyl}amino)-3-hydroxy-4-{isobutyl[(4-nitrophenyl)sulfonyl]amino}butyl)phenyl 4-nitrobenzenesulfonate] |  |  | pIC50 [1, 3]: 7.00 to 8.00; pIC50 (HIV-1 (strain IIIB); [4]): 7.00 to 8.00 |
| CC(C)CN(C[C@@H](O)[C@H](Cc1ccc(OCCCc2ccccc2)cc1)NC(=O)O[C@H]1CO[C@H]2OCC[C@H]21)S(=O)(=O)c1ccc2c(c1)OCO2 [Compound 353, (3R,3aS,6aR)hexahydrofuro[2,3-b]furan-3-yl (1S,2R)-3-[(1,3-benzodioxol-5-ylsulfonyl)(isobutyl)amino]-2-hydroxy-1-[4-([3-phenylpropyl]oxy)benzyl]propylcarbamate] |  |  | pIC50 ([1]; read-out: EP13 mutant IC50, EP13 multi protease inhibitor resistant virus, MT4 cells): > 9.00; pIC50 ([2]; read-out: D545701-14 mutant - IC50, D545701-14 multi protease inhibitor resistant virus, MT4 cells): 8.00 to 9.00 |
| CNC(=O)OCCCC(C)(C)CN(C[C@@H](O)[C@H](Cc1ccc(OCc2ccccc2)cc1)NC(=O)OC1CCOC1)S(=O)(=O)c1ccc2c(c1)OCO2 (some centres unmarked) [Compound 362] |  |  | pIC50 (HIV-1 (strain IIIB); [4]): 7.00 to 8.00 |
| CNC(=O)OCCCC(C)(C)CN(C[C@@H](O)[C@H](Cc1ccc(OCc2ccccc2)cc1)NC(=O)OC1COCOC1)S(=O)(=O)c1ccc2c(c1)OCO2 [Compound 363, 1,3-Dioxan-5-yl N-((1S,2R)-1-[(4-benzyloxy)benzyl-3-[2,2-dimethyl-5-(N′-methylcarbamoyloxy)-pentyl][(3,4-methylenedioxyphenyl)sulfonyl]amino-2-hydroxypropyl) carbamate] |  |  | pIC50 (HIV-1 (strain IIIB); [4]): 7.00 to 8.00 |
| CSc1ccc(COc2ccc(C[C@H](NC(=O)O[C@H]3CO[C@H]4OCC[C@H]43)[C@H](O)CN(CC(C)C)S(=O)(=O)c3ccc4c(c3)OCO4)cc2)cc1 [Compound 369] |  |  | pIC50 (HIV-1 (strain IIIB); [4]): 8.00 to 9.00 |
| CC(C)CN(C[C@@H](O)[C@H](Cc1ccc(OCc2ccc(F)cc2)cc1)NC(=O)O[C@H]1CO[C@H]2OCC[C@H]21)S(=O)(=O)c1ccc2c(c1)OCO2 [Compound 371] |  | 7.00 to 8.00 | pIC50 ([1]; EP13 multi protease inhibitor resistant virus, MT4 cells, read-out: EP13 mutant IC50): 8.00 to 9.00 |
| CC(C)CN(C[C@@H](O)[C@H](Cc1ccc(OCc2ccc(C(F)(F)F)cc2)cc1)NC(=O)O[C@H]1CO[C@H]2OCC[C@H]21)S(=O)(=O)c1ccc2c(c1)OCO2 [Compound 372] | 7.00 to 8.00 | 8.00 to 9.00 |  |
| CC(C)CN(C[C@@H](O)[C@H](Cc1ccc(OCc2cccc(C(F)(F)F)c2)cc1)NC(=O)O[C@H]1CO[C@H]2OCC[C@H]21)S(=O)(=O)c1ccc2c(c1)OCO2 [Compound 373] | 7.00 to 8.00 | 8.00 to 9.00 |  |
| CC(C)CN(C[C@@H](O)[C@H](Cc1ccc(OCc2ccc(-c3csnn3)cc2)cc1)NC(=O)O[C@H]1CO[C@H]2OCC[C@H]21)S(=O)(=O)c1ccc2c(c1)OCO2 [Compound 374] |  | 8.00 to 9.00 |  |
| CC(C)CN(C[C@@H](O)[C@H](Cc1ccc(OCc2noc(-c3ccccc3)n2)cc1)NC(=O)O[C@H]1CO[C@H]2OCC[C@H]21)S(=O)(=O)c1ccc2c(c1)OCO2 [Compound 375] | 7.00 to 8.00 | 8.00 to 9.00 |  |
| CC(C)CN(C[C@@H](O)[C@H](Cc1ccc(OCc2ccc([N+](=O)[O-])cc2)cc1)NC(=O)O[C@H]1CO[C@H]2OCC[C@H]21)S(=O)(=O)c1ccc2c(c1)OCO2 [Compound 383, (3R,3aS,6aR)-hexahydrofuro[2,3-b]furan-3-yl (1S,2R)-3-[(1,3-benzodioxol-5-ylsulfonyl)(isobutyl)amino]-2-hydroxy 1-{4-[(4-nitrobenzyl)oxy]benzyl}propylcarbamate] |  | 8.00 to 9.00 |  |
| COc1ccccc1-c1nc(COc2ccc(C[C@H](NC(=O)O[C@H]3CO[C@H]4OCC[C@H]43)[C@H](O)CN(CC(C)C)S(=O)(=O)c3ccc4c(c3)OCO4)cc2)no1 [Compound 390, (3R,3aS,6aR)-hexahydrofuro[2,3-b]furan-3-yl (1S,2R)-3-[(1,3-benzodioxol-5-ylsulfonyl)(isobutyl)amino]-2-hydroxy-1-(4-{[5-(2-methoxyphenyl)-1,2,4-oxadiazol-3-yl]methoxy}benzyl) propylcarbamate] | 7.00 to 8.00 | 8.00 to 9.00 |  |
| CC(C)CN(C[C@@H](O)[C@H](Cc1ccc(OCc2nccn2Cc2ccccc2)cc1)NC(=O)O[C@H]1CO[C@H]2OCC[C@H]21)S(=O)(=O)c1ccc2c(c1)OCO2 [Compound 394] |  | 8.00 to 9.00 |  |
| N#Cc1cccc(COc2ccc(C[C@H](NC(=O)O[C@H]3CO[C@H]4OCC[C@H]43)[C@H](O)CN(CC3CCCC3)S(=O)(=O)c3ccc4c(c3)OCO4)cc2)c1 [Compound 396, (3R,3aS,6aR)-hexahydrofuro[2,3-b]furan-3-yl (1S,2R)-3-[(1,3-benzodioxol-5-ylsulfonyl)(cyclopentylmethyl)amino-]-1-{4-[(3-cyanobenzyl)oxy]benzyl}-2-hydroxypropylcarbamate] |  | 8.00 to 9.00 |  |
| CC(C)(C)NC(=O)[C@@H]1CN(Cc2cccnc2)CCN1C[C@@H](O)C[C@@H](Cc1ccccc1)C(=O)N[C@H]1c2ccccc2C[C@H]1O [Indinavir, reference compound] |  |  | pIC50 [1, 5]: 6.25; pIC50 [2, 6]: 6.15 |
| Cc1c(O)cccc1C(=O)N[C@@H](CSc1ccccc1)[C@H](O)CN1C[C@H]2CCCC[C@H]2C[C@H]1C(=O)NC(C)(C)C [Nelfinavir, reference compound] |  |  | pIC50 [2, 6]: 6.16 |
| CC(C)c1nc(CN(C)C(=O)N[C@H](C(=O)N[C@@H](Cc2ccccc2)C[C@H](O)[C@H](Cc2ccccc2)NC(=O)OCc2cncs2)C(C)C)cs1 [Ritonavir, reference compound] |  |  | pIC50 [1, 5]: < 6.22; pIC50 [2, 6]: < 5.00 |
| CC(C)(C)NC(=O)[C@@H]1C[C@@H]2CCCC[C@@H]2CN1C[C@@H](O)[C@H](Cc1ccccc1)NC(=O)[C@H](CC(N)=O)NC(=O)c1ccc2ccccc2n1 [Saguinavir, reference compound] |  |  | pIC50 ([2]; D545701-14 mutant virus, read-out: Reference data for protease inhibitors (D545701-14)): 6.05 |
